Test results published in patent US11458189B2, “Cytoprotective drugs” (BALMES TRANSPLANTATION, priority 2017, dated 2022).
Starred links: 1 amine or outer side, 2 acyl side, 3 side chain; linkers in the order of their positions; H or OH if unused. Positions of bridges follow the written chain, without caps; N, C: chain ends. Non-standard residues stand in square brackets, D forms with d. Residues, ends and D or L forms follow the SMILES beside them. *: point of attachment. hTyr(3S-OH,4S-OH,3'-OSO3H) = N[C@H](C(=O)O)[C@H](O)[C@@H](O)c1ccc(O)c(OS(=O)(=O)O)c1; Orn(4R-OH,5R-OH) = O=C([C@H](C[C@@H](O)[C@@H](O)N[*:3])N[*:1])[*:2]; Pro(3S-OH,4S-Me) = C[C@H]1CN[C@H](C(=O)O)[C@H]1O; X1 = CCCCCOc1ccc(-c2cc(-c3ccc(C(=O)*)cc3)no2)cc1; Gln(3R-OH) = NC(=O)C[C@@H](O)[C@H](N)C(=O)O; Hyp = O=C(O)[C@@H]1C[C@@H](O)CN1

System: Human Astrocytes (HA)
Experiment: Oxygen and glucose deprivation followed by replenishment, cell survival (calcein AM), HA
Assay type: cell-based
Experimental: Anidulafungin and micafungin were tested on Human Renal Glomerular Endothelial Cells (HRGEC, Innoprot P10665), on Human Renal Proximal Tubular Epithelial Cells (HRPTEpiC, Innoprot P10662), on Human Astrocytes (HA, caltag SC-1800), on Human Cardiac Microvascular Endothelial Cells (HCMEC, Caltag SC-6000), on Human Hepatic Sinusoidal Endothelial Cells (HHSEC, Caltag SC-5000), on Rat Primary Kidney Glomerular Endothelial cells (Cellbiologics, RN-6014G) and on Bovine Brain Microvascular Endothelial Cells (BBMEC, Caltag SC-B100).
In a first phase, these isolated, purified and cryopreserved cells are thawed and multiplied according to the supplier's recommendations in T75 or T175 flasks pre-coated with 2 μg of fibronectin/[…] (CORNING) for HRGEC, HCMEC, HHSEC and BBMEC, or 2 μg poly-L-lysin/cm^2 (Caltag SC-0403) for HRPTEpiC and HA, or 15 mL/flask 175 cm^2 gelatin-based solution (Cellbiologics) in the presence of endothelial cell supplemented growth medium ECM (P60104, INNOPROT, Caltag, SC-1001) for HRGEC, HCMEC, HHSEC, RPKGEC or BBMEC, or astrocyte cell supplemented growth medium AM (Caltag SC-1801) for HA or epithelial cell supplemented growth medium EpiCM (P60106, INNOPROT) for HRPTEpiC, at 37° C. under 5% CO2 and saturated humidity until their confluency. They are then harvested by trypsinization according to the method described by the supplier for exactly 5 minutes and then reseeded in new flasks a maximum of three times.
To carry out the oxygen and glucose deprivation test followed by their replenishment, the cells will be seeded in 96-well black plates with transparent flat bottom (GREINER). Once a sufficient number of cells has been obtained to allow seeding of 2000 to 15000 cells per well of 96-well plates depending on the cell type, the cells are seeded in these 96-well plates previously coated with an extracellular matrix as listed above for the flasks. The cells are cultured for 5 to 8 days according to the cell type, in the presence of the same growth medium as in the flask as described above except for HRGEC and HRPTEpiC for which DMEM (DUTSCHER) with 1 g/L of supplemented glucose is used, at 37° C. under 5% CO2 and saturated humidity to obtain confluency.
On the first day of oxygen and glucose deprivation, (5th, 6th, 7th or 8th day of culture), the culture conditions are drastically changed. The medium of all plates is removed and replaced by DMEM (DUTSCHER) medium without glucose and supplemented only with 1% penicillin-streptomycin (DUTSCHER). Anidulafungin or micafungin dissolved in dimethyl sulfoxide (DMSO) is then added to each well at the desired concentration, resulting in a maximum of 1% DMSO, and the plates are placed under hypoxia at <1% 02 and 5% CO2 at 37° C. for 24 hours of culture. Each compound was tested in a concentration range.
After 24 hours, the growth medium is changed and replaced by a richer medium, DMEM (DUTSCHER) at 1 g/L glucose and 2% FBS (INNOPROT) and 1% penicillin-streptomycin (DUTSCHER). These media will have been pre-equilibrated at 37° C. in advance. The cells are then returned to culture at 37° C. under 20% 02 and 5% CO2 for 22h.
After 22 hours of reoxygenation, the potential protective effect of anidulafungin or micafungin is measured by a cell viability test using calcein AM (CORNING), which is a dye substrate. The calcein AM can easily cross the cell membrane of the viable cells. The AM ester groups mask the part of the molecule that chelates calcium. Once inside the cells, the (non-fluorescent) calcein AM is hydrolyzed to (fluorescent) calcein by endogenous esterases. The resulting calcein molecule binds to calcium inside the cell and remains trapped inside the cell. These molecules emit strong green fluorescence when subjected to […] of a particular wavelength (495 nm). Since dead cells lack esterase activity, only living cells are labelled.
This cell viability test is performed in two steps. […]

SMILES: CCCCCOc1ccc(-c2cc(-c3ccc(C(=O)N[C@H]4C[C@@H](O)[C@@H](O)NC(=O)[C@@H]5[C@@H](O)[C@@H](C)CN5C(=O)[C@H]([C@H](O)CC(N)=O)NC(=O)[C@H]([C@H](O)[C@@H](O)c5ccc(O)c(OS(=O)(=O)O)c5)NC(=O)[C@@H]5C[C@@H](O)CN5C(=O)[C@H]([C@@H](C)O)NC4=O)cc3)no2)cc1 [Micafungin, {5-[(1S,2S)-2-[(3S,6S,9S,11R,15S,18S,20R,21R,24S,25S,26S)-3-[(1R)-2-carbamoyl-1-hydroxyethyl]-11,20,21,25-tetrahydroxy-15-[(1R)-1-hydroxyethyl]-26-methyl-2,5,8,14,17,23-hexaoxo-18-[(4-{5-[4-(pentyloxy)phenyl]-1,2-oxazol-3-yl}benzene)amido]-1,4,7,13,16,22-hexaazatricyclo[22.3.0.0]heptacosan-6-yl]-1,2-dihydroxyethyl]-2-hydroxyphenyl}oxidanesulfonic acid] (X1-[Orn(4R-OH,5R-OH)]T[Hyp][hTyr(3S-OH,4S-OH,3'-OSO3H)][Gln(3R-OH)][Pro(3S-OH,4S-Me)]; lactam 1-C)
- Globalfluo assay 1 ([Micafungin] log μM 0): 11119980 arbitrary units
- Globalfluo assay 2 ([Micafungin] log μM 0): 10122420 arbitrary units
- Globalfluo assay 3 ([Micafungin] log μM 0): 9942897 arbitrary units
- Mean globalfluo ([Micafungin] log μM 0): 10395099 arbitrary units
- Survival rate (%) ([Micafungin] log μM 0): 2%
- Globalfluo assay 1 ([Micafungin] log μM 0.4771213): 10184240 arbitrary units
- Globalfluo assay 2 ([Micafungin] log μM 0.4771213): 11122790 arbitrary units
- Globalfluo assay 3 ([Micafungin] log μM 0.4771213): 12211830 arbitrary units
- Mean globalfluo ([Micafungin] log μM 0.4771213): 11172953 arbitrary units
- Survival rate (%) ([Micafungin] log μM 0.4771213): 6%
- Globalfluo assay 1 ([Micafungin] log μM 0.7781513): 12145620 arbitrary units
- Globalfluo assay 2 ([Micafungin] log μM 0.7781513): 12627660 arbitrary units
- Globalfluo assay 3 ([Micafungin] log μM 0.7781513): 12964960 arbitrary units
- Mean globalfluo ([Micafungin] log μM 0.7781513): 12579413 arbitrary units
- Survival rate (%) ([Micafungin] log μM 0.7781513): 14%
- Globalfluo assay 1 ([Micafungin] log μM 0.90309): 12128260 arbitrary units
- Globalfluo assay 2 ([Micafungin] log μM 0.90309): 10787240 arbitrary units
- Globalfluo assay 3 ([Micafungin] log μM 0.90309): 13139350 arbitrary units
- Mean globalfluo ([Micafungin] log μM 0.90309): 12018283 arbitrary units
- Survival rate (%) ([Micafungin] log μM 0.90309): 11%
- Globalfluo assay 1 ([Micafungin] log μM 1): 15956640 arbitrary units
- Globalfluo assay 2 ([Micafungin] log μM 1): 14291510 arbitrary units
- Globalfluo assay 3 ([Micafungin] log μM 1): 16904820 arbitrary units
- Mean globalfluo ([Micafungin] log μM 1): 15717657 arbitrary units
- Survival rate (%) ([Micafungin] log μM 1): 32%
- Globalfluo assay 1 ([Micafungin] log μM 1.079181): 12974980 arbitrary units
- Globalfluo assay 2 ([Micafungin] log μM 1.079181): 13357070 arbitrary units
- Globalfluo assay 3 ([Micafungin] log μM 1.079181): 13693180 arbitrary units
- Mean globalfluo ([Micafungin] log μM 1.079181): 13341743 arbitrary units
- Survival rate (%) ([Micafungin] log μM 1.079181): 18%
- Globalfluo assay 1 ([Micafungin] log μM 1.176091): 15116230 arbitrary units
- Globalfluo assay 2 ([Micafungin] log μM 1.176091): 14430130 arbitrary units
- Globalfluo assay 3 ([Micafungin] log μM 1.176091): 15740520 arbitrary units
- Mean globalfluo ([Micafungin] log μM 1.176091): 15095627 arbitrary units
- Survival rate (%) ([Micafungin] log μM 1.176091): 28%
- Globalfluo assay 1 ([Micafungin] log μM 1.30103): 11900350 arbitrary units
- Globalfluo assay 2 ([Micafungin] log μM 1.30103): 13780590 arbitrary units
- Globalfluo assay 3 ([Micafungin] log μM 1.30103): 15553770 arbitrary units
- Mean globalfluo ([Micafungin] log μM 1.30103): 13744903 arbitrary units
- Survival rate (%) ([Micafungin] log μM 1.30103): 21%
- Globalfluo assay 1 ([Micafungin] log μM 1.477121): 14577460 arbitrary units
- Globalfluo assay 2 ([Micafungin] log μM 1.477121): 14402140 arbitrary units
- Globalfluo assay 3 ([Micafungin] log μM 1.477121): 13825080 arbitrary units
- Mean globalfluo ([Micafungin] log μM 1.477121): 14268227 arbitrary units
- Survival rate (%) ([Micafungin] log μM 1.477121): 24%
- Globalfluo assay 1 ([Micafungin] log μM −0.5228788): 9708125 arbitrary units
- Globalfluo assay 2 ([Micafungin] log μM −0.5228788): 10748420 arbitrary units
- Globalfluo assay 3 ([Micafungin] log μM −0.5228788): 10103750 arbitrary units
- Mean globalfluo ([Micafungin] log μM −0.5228788): 10186765 arbitrary units
- Survival rate (%) ([Micafungin] log μM −0.5228788): 1%
- Globalfluo assay 1 ([Micafungin] log μM −1): 12091240 arbitrary units
- Globalfluo assay 2 ([Micafungin] log μM −1): 10337500 arbitrary units
- Globalfluo assay 3 ([Micafungin] log μM −1): 9946542 arbitrary units
- Mean globalfluo ([Micafungin] log μM −1): 10791761 arbitrary units
- Survival rate (%) ([Micafungin] log μM −1): 4%
- Globalfluo assay 1 ([Micafungin] log μM −2): 9536623 arbitrary units
- Globalfluo assay 2 ([Micafungin] log μM −2): 9993250 arbitrary units
- Globalfluo assay 3 ([Micafungin] log μM −2): 10712930 arbitrary units
- Mean globalfluo ([Micafungin] log μM −2): 10080934 arbitrary units
- Survival rate (%) ([Micafungin] log μM −2): 0%
